Experimental data from patent publication US4097595A, “7-Amino-thiazolyl acetamido cephalosporanic acids” (Roussel Uclaf, priority 1976, dated 1978).
In brackets after ≈: the same amount, converted by molar mass. Read-outs that look alike come from different tables or passages of the source.

Experiments:
Assay type in all cases: cell-based
[1] = system: Staphylococcus aureus UC 1128 (penicillin resistant); assay: MIC, dilution method in liquid media, Staphylococcus aureus UC 1128, penicillin resistant
Description: (§1) A series of tubes were prepared with the same quantity of sterile nutrive media and increasing quantities of the test product was distributed to each tube. Then, each tube was seeded with a bacterial strain and after incubation at 37° C for 24 or 48 hours, the inhibition of the growth was determined by transillumination which permitted determination of the minimum inhibitory concentrations (M.I.C.) in μg/ml.

[2] = system: Escherichia Coli UC 1 020; assay: MIC, dilution method in liquid media, Escherichia Coli UC 1 020; settings: read-out: MIC
Description: as §1

[3] = system: Escherichia Coli (T) 0 26 B 6; assay: MIC, dilution method in liquid media, Escherichia Coli (T) 026 B6
Description: as §1

[4] = system: Streptococcus faecalis 5 432; assay: MIC, dilution method in liquid media, Streptococcus faecalis 5 432; settings: read-out: MIC
Description: as §1

[5] = system: Klebsiella pneumoniae 52 145; assay: MIC, dilution method in liquid media, Klebsiella pneumoniae 52 145
Description: as §1

[6] = system: Staphylococcus aureus 54 146; assay: MIC, dilution method in liquid media, Staphylococcus aureus 54 146
Description: as §1

[7] = system: Bacillus subtilis ATCC 6 633; assay: MIC, dilution method in liquid media, Bacillus subtilis ATCC 6 633
Description: as §1

Salmonella Typhimurium = assay: MIC, dilution method in liquid media, Salmonella Typhimurium; settings: Salmonella enterica, strain 420 (Tables II, IV)
Description: as §1

[8] = system: Staphylococcus aureus UC 1 061 (penicillin sensible); assay: MIC, dilution method in liquid media, Staphylococcus aureus UC 1061, penicillin sensible; settings: penicillin sensible
Description: as §1

[9] = system: Escherichia Coli R 55 123 D; assay: MIC, dilution method in liquid media, Escherichia Coli R 55 123 D; settings: COLIR55123D, read-out: MIC
Description: as §1

[10] = system: Proteus mirabilis (indol); assay: MIC, dilution method in liquid media, Proteus mirabilis (indol)
Description: as §1

[11] = system: Staphylococcus aureus ATCC 6 538; assay: MIC, dilution method in liquid media, Staphylococcus aureus ATCC 6 538
Description: as §1

[12] = system: Escherichia Coli UC 1 261; assay: MIC, dilution method in liquid media, Escherichia Coli UC 1 261; settings: read-out: MIC
Description: as §1

[13] = system: Streptococcus pyogenes A 561; assay: MIC, dilution method in liquid media, Streptococcus pyogenes A 561
Description: as §1

[14] = system: Streptococcus faecalis 99 F 74; assay: MIC, dilution method in liquid media, Streptococcus faecalis 99 F 74; settings: Enterococcus faecalis
Description: as §1

Serratia RG 2 532 = assay: MIC, dilution method in liquid media, Serratia RG 2 532
Description: as §1

[15] = Staphylococcus aureus, 54146, 24 h, read-out: MIC

Nc1nc(CC(=O)NC2C(=O)N3C(C(=O)O)=C(CSC(=O)c4ccco4)CS[C@H]23)cs1 (stereo partly shown) [Example 5, 7-[2-(2-amino-4-thiazolyl)-acetamido]-3-[{(2-furyl)-carbonyl}thiomethyl]-ceph-3-eme-4-carboxylic acid]
MIC ([1]; UC1128, 24 H): 1 µg/mL (≈ 2.08 µM)
MIC ([1]; UC1128, 48 H): 2 µg/mL (≈ 4.16 µM)
MIC ([2]; UC1, 24 h): 10 µg/mL (≈ 20.8 µM)
MIC ([2]; UC1, 48 h): 10 µg/mL (≈ 20.8 µM)
MIC ([3]; 24 h): 10 µg/mL (≈ 20.8 µM)
MIC ([3]; 48 h): 10 µg/mL (≈ 20.8 µM)
MIC ([4]; Enterococcus faecalis, 5432, 24 h): 5 µg/mL (≈ 10.4 µM)
MIC ([4]; Enterococcus faecalis, 5432, 48 h): 40 µg/mL (≈ 83.2 µM)
MIC ([5]; Klebsiella pneumoniae, 52145, 24 h): 0.4 µg/mL (≈ 0.832 µM)
MIC ([5]; Klebsiella pneumoniae, 52145, 48 h, read-out: MIC): 1 µg/mL (≈ 2.08 µM)
MIC [6, 15]: 1 µg/mL (≈ 2.08 µM)
MIC ([6]; Staphylococcus aureus, 54146, 48 h, read-out: MIC): 1 µg/mL (≈ 2.08 µM)
MIC ([7]; ATCC6, 24 h): 0.2 µg/mL (≈ 0.416 µM)
MIC ([7]; ATCC6, 48 h): 0.2 µg/mL (≈ 0.416 µM)
MIC (Salmonella Typhimurium; 24 H): 10 µg/mL (≈ 20.8 µM)
MIC ([8]; UC1, 24 H): 0.5 µg/mL (≈ 1.04 µM)
MIC ([8]; UC1, 48 H): 1 µg/mL (≈ 2.08 µM)
MIC ([9]; 24 h): 10 µg/mL (≈ 20.8 µM)
MIC ([9]; 48 h): 10 µg/mL (≈ 20.8 µM)
MIC ([10]; 24 H, A 235, read-out: MIC): 2 µg/mL (≈ 4.16 µM)
MIC ([10]; 48 H, A 235, read-out: MIC): 2 µg/mL (≈ 4.16 µM)
MIC ([11]; ATCC6, 24 h, read-out: MIC): 0.5 µg/mL (≈ 1.04 µM)
MIC ([11]; ATCC6, 48 h, read-out: MIC): 1 µg/mL (≈ 2.08 µM)
MIC ([12]; UC1, 24 h): 2 µg/mL (≈ 4.16 µM)
MIC ([12]; UC1, 48 h): 2 µg/mL (≈ 4.16 µM)
MIC ([13]; A561, 24 h): 0.1 µg/mL (≈ 0.208 µM)
MIC ([13]; A561, 48 h): 0.1 µg/mL (≈ 0.208 µM)

CCC(=O)SCC1=C(C(=O)O)N2C(=O)C(NC(=O)Cc3csc(N)n3)[C@H]2SC1 (stereo partly shown) [Example 6, 7-[2-(2-amino-4-thiazolyl)-acetamido]-3-propionylthiomethyl-ceph-3-eme-4-carboxylic acid]
MIC ([1]; UC1128, 24 H): 1 µg/mL (≈ 2.26 µM)
MIC ([1]; UC1128, 48 H): 1 µg/mL (≈ 2.26 µM)
MIC ([2]; UC1, 24 h): 10 µg/mL (≈ 22.6 µM)
MIC ([2]; UC1, 48 h): 10 µg/mL (≈ 22.6 µM)
MIC ([3]; 24 h): 40 µg/mL (≈ 90.4 µM)
MIC ([3]; 48 h): 40 µg/mL (≈ 90.4 µM)
MIC ([5]; Klebsiella pneumoniae, 52145, 24 h, read-out: MIC): 3 µg/mL (≈ 6.78 µM)
MIC ([5]; Klebsiella pneumoniae, 52145, 48 h): 5 µg/mL (≈ 11.3 µM)
MIC ([14]; 99F74, 24 h): 20 µg/mL (≈ 45.2 µM)
MIC ([14]; 99F74, 48 h, read-out: MIC): 40 µg/mL (≈ 90.4 µM)
MIC (Serratia RG 2 532; RG2532, 24 h): 10 µg/mL (≈ 22.6 µM)
MIC (Serratia RG 2 532; RG2532, 48 h): 10 µg/mL (≈ 22.6 µM)
MIC [6, 15]: 1 µg/mL (≈ 2.26 µM)
MIC ([6]; Staphylococcus aureus, 54146, 48 h): 2 µg/mL (≈ 4.52 µM)
MIC ([7]; ATCC6, 24 h): 0.1 µg/mL (≈ 0.226 µM)
MIC ([7]; ATCC6, 48 h): 0.1 µg/mL (≈ 0.226 µM)
MIC (Salmonella Typhimurium; 24 H): 5 µg/mL (≈ 11.3 µM)
MIC (Salmonella Typhimurium; 48 H): 5 µg/mL (≈ 11.3 µM)
MIC ([8]; UC1, 24 H): 0.6 µg/mL (≈ 1.36 µM)
MIC ([8]; UC1, 48 H): 0.6 µg/mL (≈ 1.36 µM)
MIC ([10]; 24 H, A 235, read-out: MIC): 10 µg/mL (≈ 22.6 µM)
MIC ([10]; 48 h): 20 µg/mL (≈ 45.2 µM)
MIC ([11]; ATCC6, 24 h, read-out: MIC): 0.2 µg/mL (≈ 0.452 µM)
MIC ([11]; ATCC6, 48 h): 0.4 µg/mL (≈ 0.904 µM)
MIC ([12]; UC1, 24 h): 10 µg/mL (≈ 22.6 µM)
MIC ([12]; UC1, 48 h): 10 µg/mL (≈ 22.6 µM)
MIC ([13]; A561, 24 h): 0.2 µg/mL (≈ 0.452 µM)
MIC ([13]; A561, 48 h): 0.2 µg/mL (≈ 0.452 µM)
